Test results: US20090011410A1, “METHOD FOR TAILORING ADMINISTRATION OF DRUGS BY QUANTITATION OF MRNA” (priority 2004, published 2009)

How the values were obtained:
Format in all cases: cell-based, human
PUMA mRNA [1] = test: drug-induced PUMA mRNA expression in whole blood of leukemia and lymphoma patients; conditions: 2 hours at 37° C.; for PUMA response: NHL patient, drug concentrations (FIG. 8C)
p21 mRNA [2] = test: drug-induced p21 mRNA expression in whole blood of leukemia and lymphoma patients
BAX mRNA = test: drug-induced BAX mRNA expression in whole blood of leukemia and lymphoma patients; conditions: drug concentrations (FIG. 3)
Experimental: The mRNA and cDNA were prepared from whole blood. In brief, home-made 96-well filterplates were placed over collection plates, and 150 μl 5 mM Tris, pH 7.4, was applied. Following centrifugation at 120×g for 1 min at 4° C., 50 μl of blood samples were applied to each well and immediately centrifuged at 120×g for 2 min at 4° C., followed by washing of each well with 300 μl PBS once with centrifugation at 2000×g for 5 min at 4° C. Then, 60 μl stock lysis buffer, containing for example 0.5% N-Lauroylsarcosine, 4×SSC, 10 mM Tris HCl, pH 7.4, 1 mM EDTA, 0.1% IGEPAL CA-630, and 1.791 M guanidine thiocyanate, supplemented with 1% 2-mercaptoethanol (Bio Rad, Hercules, Calif., USA), 0.5 mg/ml proteinase K (Pierce, Rockford, Ill., USA), 0.1 mg/ml salmon sperm DNA (5 Prime Eppendorf/Brinkmann, Westbury, N.Y., USA), 0.1 mg/ml E. coli tRNA (Sigma), a cocktail of 10 mM each of the specific reverse primers shown in Table 1, and standard RNA34 oligonucleotides, were applied to the filterplates, followed by incubation at 37° C. for 10 min. The filterplates were then placed over oligo(dT)-immobilized microplates (GenePlate, RNAture), and centrifuged at 2000×g for 5 min at 4° C. Following overnight storage at 4° C., the microplates were washed with 100 μl plain lysis buffer 3 times, followed by 150 μl of wash buffer (0.5 M NaCl, 10 mM Tris, pH 7.4, 1 mM EDTA) 3 times at 4° C. The cDNA was directly synthesized in each well by adding 30 μl buffer containing 1× RT-butter, 1.25 mM each of dNTP, 4 units rRNasin, and 80 units of MMLV reverse transcriptase (Promega) (without primers), and incubation at 37° C. for 2 hours. The specific primer-primed cDNA existed in solution, and oligo(dT)-primed cDNA stayed immobilized in the microplate. For TaqMan PCR (FIGS. 1, 3, 4), the resultant 4 μl cDNA solution was directly transferred to 384-well PCR plates, to which 5 μl of TaqMan universal master mix (ABI) and 1 μl oligonucleotide cocktail (15 μM each of forward and reverse primer, and 3-6 μM TaqMan probe) were applied, and PCR was conducted in PRISM 7900HT (ABI), with one cycle of 95° C. for 10 min followed by 45 cycles of 95° C. for 30 sec, 55° C. for 30 sec, and 60° C. for 1 min. […] The Ct was determined by analytical software (SDS, ABI).

PUMA mRNA [3] = test: drug-induced PUMA mRNA expression in whole blood of healthy adults; conditions: 10 or 100 μM taxol, 2 hours at 37° C., all individuals (FIG. 13)
Experimental: (§1) In 8-well strip microtubes, 1.4 μl of 50× concentrations of drugs or controls (phosphate buffered saline (PBS) or DMSO) were added, and stored at −20° C. until use. […] Seventy μl of fresh heparinized whole blood was added into each well in triplicate, and incubated at 37° C. for 2-8 hours with the cap closed. For radiation treatment, blood was stimulated at designated doses using cesium-137. After each treatment, 50 μl of whole blood was transferred to filterplates as described below.
(§2) The mRNA and cDNA were prepared from whole blood. In brief, home-made 96-well filterplates were placed over collection plates, and 150 μl 5 mM Tris, pH 7.4, was applied. Following centrifugation at 120×g for 1 min at 4° C., 50 μl of blood samples were applied to each well and immediately centrifuged at 120×g for 2 min at 4° C., followed by washing of each well with 300 μl PBS once with centrifugation at 2000×g for 5 min at 4° C. Then, 60 μl stock lysis buffer, containing for example 0.5% N-Lauroylsarcosine, 4×SSC, 10 mM Tris HCl, pH 7.4, 1 mM EDTA, 0.1% IGEPAL CA-630, and 1.791 M guanidine thiocyanate, supplemented with 1% 2-mercaptoethanol (Bio Rad, Hercules, Calif., USA), 0.5 mg/ml proteinase K (Pierce, Rockford, Ill., USA), 0.1 mg/ml salmon sperm DNA (5 Prime Eppendorf/Brinkmann, Westbury, N.Y., USA), 0.1 mg/ml E. coli tRNA (Sigma), a cocktail of 10 mM each of the specific reverse primers shown in Table 1, and standard RNA34 oligonucleotides, were applied to the filterplates, followed by incubation at 37° C. for 10 min. The filterplates were then placed over oligo(dT)-immobilized microplates (GenePlate, RNAture), and centrifuged at 2000×g for 5 min at 4° C. Following overnight storage at 4° C., the microplates were washed with 100 μl plain lysis buffer 3 times, followed by 150 μl of wash buffer (0.5 M NaCl, 10 mM Tris, pH 7.4, 1 mM EDTA) 3 times at 4° C. The cDNA was directly synthesized in each well by adding 30 μl buffer containing 1×RT-buffer, 1.25 mM each of dNTP, 4 units rRNasin, and 80 units of MMLV reverse transcriptase (Promega) (without primers), and incubation at 37° C. for 2 hours. The specific primer-primed cDNA existed in solution, and oligo(dT)-primed cDNA stayed immobilized in the microplate. For TaqMan PCR (FIGS. 1, 3, 4), the resultant 4 μl cDNA solution was directly transferred to 384-well PCR plates, to which 5 μl of TaqMan universal master mix (ABI) and 1 μl oligonucleotide cocktail (15 μM each of forward and reverse primer, and 3-6 μM TaqMan probe) were applied, and PCR was conducted in PRISM 7900HT (ABI), with one cycle of 95° C. for 10 min followed by 45 cycles of 95° C. for 30 sec, 55° C. for 30 sec, and 60° C. for 1 min. For SYBR Green PCR (see FIG. 6), cDNA was diluted 3-4 fold in water, and 4 μl cDNA solution was directly transferred to 384-well PCR plates, to which 5 μl of a master mix (BioRad, Hercules, Calif.) and 1 μl of oligonucleotide cocktail (15 μM each of forward and reverse primer) were applied, and PCR was conducted in PRISM 7900HT (ABI), with one cycle of 95° C. for 10 min followed by 45 cycles of 95° C. for 30 sec and 60° C. for 1 min. Each gene was amplified in separate wells. The Ct was determined by analytical software (SDS, ABI). Although 1×RT buffer was used as a negative control, none of the primer pairs produced non-specific primer-dimers under these experimental conditions. For PUMA in FIG. 8, immobilized cDNA on the oligo(dT)-immobilized microplates was directly amplified in an iCycler (BioRad).
Quantitation of various mRNAs was conducted using the following method. Triplicate aliquots of 50 μl each of heparinized whole blood was applied to 96-well filterplates to trap leukocytes. The filterplates were placed over collection plates, and 150 μl 5 mM Tris, pH 7.4, was applied. […]

p21 mRNA [4] = test: drug-induced p21 mRNA expression in whole blood of healthy adults; conditions: 10 or 100 μM taxol, 2 hours at 37° C., all individuals (FIG. 13)
Text: Blood was obtained from healthy adults and from two leukemic non-Hodgkin's malignant lymphoma patients. U937, KG-1, and Jurkat cells were obtained from American Type Culture Collection (ATCC, Manassas, Va.), and maintained in RPMI 1640 supplemented with 10% fetal calf serum. Of these, U937 cells are a human histiocytic lymphoma cell line, KG-1 cells are a human bone marrow myelogenous leukemia cell line, and Jurkat cells are a human T-cell lymphoblast-like, leukemia derived cell line. […] For human experiments, blood aliquots were stimulated with various anti-cancer drugs at 37° C. for 2 hours, then both p21 and BAX mRNA were measured. The anti-cancer drugs used in this study were clinical drugs, and the concentration of each drug was adjusted to typical blood levels 3-6 hours after intravenous administration.
as §2, with “1× RT-butter,” for “1×RT-buffer,”, “ABI).” for “ABI). Although 1×RT buffer was used as a negative control, none of the primer pairs produced non-specific primer-dimers under these experimental conditions. For PUMA in FIG. 8, immobilized cDNA on the oligo(dT)-immobilized microplates was directly amplified in an iCycler (BioRad).”
as §1, with “cesium-137.” for “cesium-137. After each treatment, 50 μl of whole blood was transferred to filterplates as described below.”

[5] = CLL patient, drug concentrations of b94 (FIG. 8A)
[6] = leukemic lymphoma patient 1, 2 hours at 37° C., drug concentrations (FIG. 3)
[7] = leukemic lymphoma patient 1, 2 hours at 37° C.
[8] = AML patient, drug concentrations of b94 (FIG. 8B)
[9] = leukemic lymphoma patient 2, 2 hours at 37° C., drug concentrations (FIG. 3)

Structure (SMILES): COc1cccc2c1C(=O)c1c(O)c3c(c(O)c1C2=O)C[C@@](O)(C(C)=O)C[C@@H]3O[C@H]1C[C@H](N)[C@H](O)[C@H](C)O1 [DNR, daunorubicin]
- PUMA induction (PUMA mRNA [1]; [5]): induced

Structure (SMILES): [NH2][Pt]1([NH2])[O]C(=O)C2(CCC2)C(=O)[O]1 [Paraplatin, carboplatin]
- p21 mRNA induction (p21 mRNA [2]; [6]): significant induction
- BAX mRNA induction (BAX mRNA; [7]): significant induction

Structure (SMILES): O=C1c2c(O)ccc(O)c2C(=O)c2c(NCCNCCO)ccc(NCCNCCO)c21 [MIT, mitoxantrone]
- PUMA induction (PUMA mRNA [1]; [8]): huge induction
- PUMA induction (PUMA mRNA [1]; [5]): induced
- PUMA response (PUMA mRNA [1]): strong PUMA response
- BAX mRNA induction (BAX mRNA; leukemic lymphoma patient 2, 2 hours at 37° C.): BAX mRNA induction

Structure (SMILES): CC[C@]1(O)C[C@@H]2CN(CCc3c([nH]c4ccccc34)[C@@](C(=O)OC)(c3cc4c(cc3OC)N(C)[C@H]3[C@@](O)(C(=O)OC)[C@H](OC(C)=O)[C@]5(CC)C=CCN6CC[C@]43[C@@H]65)C2)C1 [VLB, vinblastine]
- p21 induction (p21 mRNA [2]; AML patient, 2 hours at 37° C., drug concentrations of b94 (FIG. 8B)): significant p21 induction

Structure (SMILES): O=P1(N(CCCl)CCCl)NCCCO1 (stereo not shown) [Endoxan, cyclophosphamide]
- p21 mRNA induction (p21 mRNA [2]): induced

Structure (SMILES): CN(Cc1cnc2nc(N)nc(N)c2n1)c1ccc(C(=O)N[C@@H](CCC(=O)O)C(=O)O)cc1 [MTX, methotrexate]
- PUMA induction (PUMA mRNA [1]; [8]): huge induction
- PUMA response (PUMA mRNA [1]): strong PUMA response

Structure (SMILES): Nc1nc(F)nc2c1ncn2[C@@H]1O[C@H](CO)[C@@H](O)[C@@H]1O [Fludara, fludarabine]
- p21 mRNA induction (p21 mRNA [2]; [9]): significant p21 mRNA induction
- PUMA induction (PUMA mRNA [1]; [8]): huge induction

Structure (SMILES): COc1cccc2c1C(=O)c1c(O)c3c(c(O)c1C2=O)C[C@@](O)(C(=O)CO)C[C@@H]3O[C@H]1C[C@H](N)[C@H](O)[C@H](C)O1 [Adriacin, doxorubicin]
- p21 mRNA induction (p21 mRNA [2]; [9]): significant p21 mRNA induction

Structure (SMILES): Cc1c(N)nc([C@H](CC(N)=O)NC[C@H](N)C(N)=O)nc1C(=O)N[C@H](C(=O)N[C@H](C)[C@@H](O)[C@H](C)C(=O)N[C@H](C(=O)NCCc1nc(-c2nc(C(=O)NCCCN[C@@H](C)c3ccccc3)cs2)cs1)[C@@H](C)O)[C@@H](O[C@@H]1O[C@@H](CO)[C@@H](O)[C@H](O)[C@@H]1O[C@H]1O[C@H](CO)[C@@H](O)[C@H](OC(N)=O)[C@@H]1O)c1c[nH]cn1 [PEP, peplomycin]
- PUMA induction (PUMA mRNA [1]; [8]): huge induction

Structure (SMILES): [NH2][Pt]([NH2])([Cl])[Cl] [CDDP, cisplatin]
- PUMA induction (PUMA mRNA [1]; [8]): huge induction

Structure (SMILES): CC(=O)O[C@H]1C(=O)[C@@]2(C)[C@H]([C@H](OC(=O)c3ccccc3)[C@]3(O)C[C@H](OC(=O)[C@H](O)[C@@H](NC(=O)c4ccccc4)c4ccccc4)C(C)=C1C3(C)C)[C@]1(OC(C)=O)CO[C@@H]1C[C@@H]2O [taxol]
- PUMA mRNA induction (PUMA mRNA [3]): failed to induce
- p21 mRNA induction (p21 mRNA [4]): failed to induce

Structure (SMILES): COc1cccc2c1C(=O)c1c(O)c3c(c(O)c1C2=O)C[C@@](O)(C(=O)CO)C[C@@H]3O[C@H]1C[C@H](N)[C@H](O[C@@H]2CCCCO2)[C@H](C)O1 [THP, pirarubicin]
- p21 mRNA induction (p21 mRNA [2]; [6]): significant induction
- PUMA induction (PUMA mRNA [1]; [8]): huge induction
- PUMA response (PUMA mRNA [1]): strong PUMA response
- BAX mRNA induction (BAX mRNA; [7]): significant induction
